For assay [1], the system named is Puccinia recondita tritici (leaf rust). In words: Test 1 greenhouse foliar spray screen, leaf rust on wheat. As to conditions: for LEAF RUST: disease control rating, foliar spray on wheat, 400 ppm (+++ at 100 ppm). It counts as in vivo.
For assay [2], the system named is corn rootworm. Description: Mite/insect screen, CRW. It counts as in vivo. As to conditions: percent mortality, read-out: CRW RESULTS %. Summed up: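 Stock in acetone:alcohol 1:1 + TOXIMUL R 23 g/L + TOXIMUL S 13 g/L; diluted with water to indicated concentrations; mortality (%) after standard exposure.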
The subject of assay [3] is Pyricularia oryzae (rice blast). In words: whole plant or invertebrate. As to conditions: for RICE BLAST: disease control rating, foliar spray on rice, 400 ppm (+++ at 100 ppm). It counts as in vivo.
Assay [4] deals with Twospotted spider mites (Tetranychus urticae Koch). Description: Mite/insect screen, SM. Format: in vivo. As to conditions: Tetranychus urticae, percent mortality, read-out: SM RESULTS %. Summed up: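 Read-out: percent mortality after standard exposure periods. Test solutions were water dilutions of compound dissolved in acetone/alcohol (50:50) with emulsifier blends; leaves were sprayed to runoff on both surfaces and air-dried for one hour before exposure.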

The test system of assay [5] is southern armyworm (Spodopetra eridania Cramer). Description: Mite/insect screen, SAW. It counts as in vivo. As to conditions: Spodoptera eridania, percent mortality, read-out: SAW RESULTS %. Summed up: (§1)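 First, each compound was dissolved in an emulsifier-containing acetone/alcohol mixture and diluted with water. Next, leaves were sprayed until runoff and left to dry for an hour. For southern armyworm, two excised uninfested leaves went into a Petri dish with larvae; percent mortality followed standard exposure periods.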

For assay [6], the system named is Botrytis cinerea (gray mold). Description: Test 1 greenhouse foliar spray screen, gray mold on grape berries. As to conditions: for GRAY MOLD: disease control rating, spray on grape berries, 400 ppm (+++ at 100 ppm). It counts as in vivo.
For assay [7], the system named is Pseudoperonospora cubensis (downy mildew). In words: Test 1 greenhouse foliar spray screen, downy mildew on squash. As to conditions: for DOWN MDEW: disease control rating, foliar spray on squash, 400 ppm (+++ at 100 ppm); for activity against downy mildew: summary statement in the description. Format: in vivo.
In assay [8] the test system is Phytophthora infestans. It counts as in vivo. As to conditions: field test.
Assay [9] concerns Erysiphe graminis tritici (powdery mildew). In words: Test 1 greenhouse foliar spray screen, powdery mildew on wheat. It counts as in vivo. As to conditions: for POWD MDEW: disease control rating, foliar spray on wheat, 400 ppm (+++ at 100 ppm).
The subject of assay [10] is melon aphids (Aphis gossypii Glover). In words: Mite/insect screen, MA. Format: in vivo. As to conditions: Aphis gossypii, percent mortality, read-out: MA RESULTS %. Summed up:
as §1

The subject of assay [11] is Septoria tritici (leaf blotch). In words: Test 1 greenhouse foliar spray screen, leaf blotch on wheat. Format: in vivo. As to conditions: for LEAF BLOT: disease control rating, foliar spray on wheat, 400 ppm (+++ at 100 ppm).
The test system of assay [12] is Pyrenophora teres. In words: Field tests against plant pathogens. It counts as in vivo. As to conditions: field test, crop barley. From the text:
(§2) Selected compounds were field tested against a variety of plant pathogens. […]

The test system of assay [13] is Venturia inaequalis (apple scab). In words: Test 1 greenhouse foliar spray screen, apple scab on apple seedling. It counts as in vivo. As to conditions: for APPL SCAB: disease control rating, foliar spray on apple seedling, 400 ppm (+++ at 100 ppm).
The subject of assay [14] is Cercospora beticola (leaf spot). In words: Test 1 greenhouse foliar spray screen, leaf spot on sugar beet. As to conditions: for LEAF SPOT: disease control rating, foliar spray on sugar beet, 400 ppm (+++ at 100 ppm). It counts as in vivo.
The test system of assay [15] is Plasmopara viticola. Description: Field tests against plant pathogens. Format: in vivo. As to conditions: field test, crop grape.
Source text: as §2

For assay [16], the system named is plant pathogens. In words: Fungicidal efficacy against a broad spectrum of plant pathogens (summary of screen). It counts as in vivo. As to conditions: summary statement in the description.
The subject of assay [17] is CUCURBIT DOWNY MILDEW. In words: Greenhouse combination test with known fungicide, foliar spray. As to conditions: 1-9 rating scale, time 4 hours.
Protocol: (§3) The test compounds were formulated for application by dissolving 50 mg of the compound into 1.25 ml of solvent. The solvent was prepared by mixing 50 ml of "Tween 20" with 475 ml of acetone and 475 ml of ethanol. The solvent/compound solution was diluted to 125 ml with deionized water. The resulting formulation contains 400 ppm test chemical. Lower concentrations were obtained by serial dilution with the solvent-surfactant mixture.
(§4) The formulated technical compounds were sprayed on all foliar surfaces of the host plants (or cut berry) to past run-off. Single pots of each host plant were placed on raised, revolving pedestals in a fume hood. Test solutions were sprayed on all foliar surfaces. All treatments were allowed to dry and the plants were inoculated with the appropriate pathogens within 2-4 hours.
(§5) In the tables, the time given under "Time in hours" is the number of hours elapsing between treatment and inoculation. […] In such cases, curative activity was being tested. […] In such cases, residual or protectant activity was tested. […] The results were evaluated on a 1-9 rating scale. These ratings represent the following percent disease control: 1 = 0-19%, 2 = 20-29%, 3 = 30-39%, 4 = 40-59%, 5 = 60-74%, 6 = 75-89%, 7 = 90-96%, 8 = 97-99%, and 9 = 100%.
For assay [18], the system named is CUCURBIT POWDERY MILDEW. Described as above. As to conditions: 1-9 rating scale, time 4 hours.
Protocol: as §3, §4, §5
Setting [19] is: foliar, rate 200 ppm, foliar spray on squash.
[20] abbreviates: foliar, rate 400 ppm, foliar spray on squash.

Structures are written as SMILES. Read-outs that look alike come from different tables or passages of the source.

With `c1ccc(CCNc2ccnc3ccccc23)cc1` [Example 2, N-(2-phenylethyl)-4-quinolinamine], the “LEAF RUST” value in [1] was “- (0-19% control at 400 ppm)”. Besides, in assay [2] (CRW RATE 12.00 PPM), the mortality at 12 ppm came out at 0%. For the same molecule, in assay [3], the “RICE BLAST” value was “- (0-19% control at 400 ppm)”. For the same molecule, the mortality at 200 ppm in [4] (SAW, SM & MA RATE 200 PPM) was 0%; in [5] (SAW, SM & MA RATE 200 PPM) it was 0%; in [10] (SAW, SM & MA RATE 200 PPM), 0%. The “GRAY MOLD” value in [6] is “- (0-19% control at 400 ppm)”. Further, the “DOWN MDEW” value in [7] is recorded as “+++ (90-100% control at 100 ppm)”. In addition, the “pathogens against which compounds of the invention showed activity” value (“pathogens against which compounds” below) in assay [8] (crop potato) is “Phytophthora infestans”; in assay [8] (crop tomato) it was “Phytophthora infestans”; in assay [12] it was “Pyrenophora teres”. The “POWD MDEW” value in [9] is “- (0-19% control at 400 ppm)”. Also, the “LEAF BLOT” value in [11] is “- (0-19% control at 400 ppm)”. In addition, the “APPL SCAB” value in [13] was “- (0-19% control at 400 ppm)”.
As for `Fc1cccc2c(NCCc3ccccc3C(F)(F)F)ccnc12` [Example 97, 8-fluoro-N-[2-[2-(trifluoromethyl)phenyl]ethyl]-4-quinolinamine], the “LEAF RUST” value in [1] was “+++ (90-100% control at 100 ppm)”. In addition, in assay [2] (CRW RATE 12.00 PPM), the mortality at 12 ppm turned out to be 0%. Further, in assay [3], the “RICE BLAST” value was “+++ (90-100% control at 100 ppm)”. The mortality at 200 ppm came out at 0% in assay [4] (SAW, SM & MA RATE 200 PPM); 0% in [5] (SAW, SM & MA RATE 200 PPM); 0% in assay [10] (SAW, SM & MA RATE 200 PPM). For the same molecule, the “LEAF SPOT” value in [14] is recorded as “+++ (90-100% control at 100 ppm)”. Further, the “GRAY MOLD” value in assay [6] was “- (0-19% control at 400 ppm)”. The “DOWN MDEW” value in [7] is listed as “+++ (90-100% control at 100 ppm)”. Also, the “activity against downy mildew” value in assay [7] is recorded as “particularly excellent activity”. The “POWD MDEW” value in assay [9] is on record as “+ (20-89% control at 400 ppm)”. Moreover, the “LEAF BLOT” value in [11] was “+++ (90-100% control at 100 ppm)”. Besides, the “pathogens against which compounds” value in [15] is “Plasmopara viticola”. Besides, the “APPL SCAB” value in assay [13] was “- (0-19% control at 400 ppm)”.
As to `Fc1cccc2c(NCCc3cccs3)ccnc12` [Example 173, 8-fluoro-N-[2-(2-thienyl)ethyl]-4-quinolinamine], the “LEAF RUST” value in assay [1] was “++ (90-100% control at 400 ppm)”. For the same molecule, the mortality at 12 ppm in assay [2] (CRW rate 12.00 ppm) was determined as 0%. Also, the “RICE BLAST” value in assay [3] is reported as “+ (20-89% control at 400 ppm)”. Moreover, the mortality at 200 ppm in assay [4] (setting [19]), in assay [5] (setting [19]) and in [10] (setting [19]) was 0% each time. Moreover, the “LEAF SPOT” value in assay [14] is reported as “+++ (90-100% control at 100 ppm)”. For the same molecule, the “GRAY MOLD” value in [6] was “- (0-19% control at 400 ppm)”. In addition, in assay [7], the “DOWN MDEW” value is given as “+++ (90-100% control at 100 ppm)”. In addition, the “activity against downy mildew” value in [7] is given as “particularly excellent activity”. For the same molecule, the “POWD MDEW” value in assay [9] is recorded as “+ (20-89% control at 400 ppm)”. For the same molecule, in assay [11], the “LEAF BLOT” value is recorded as “+ (20-89% control at 400 ppm)”. For the same molecule, the “pathogens against which compounds” value in assay [15] is “Plasmopara viticola”. The “APPL SCAB” value in assay [13] is “- (0-19% control at 400 ppm)”.
With `CC(C)(C)c1ccc(CCCc2ccnc3c(F)cccc23)cc1` [Example 260, 4-[3-[4-(t-butyl)phenyl]propyl]-8-fluoroquinoline], the “activity against a broad spectrum of plant pathogens” value in assay [16] is “particularly excellent activity”. Besides, the pest or weed control at 400 ppm in assay [1] (Puccinia recondita, foliar, Test 1, foliar spray on wheat, disease control rating at 400 ppm / 100 ppm) is 90 to 100%; in assay [3] (Pyricularia oryzae, foliar, read-out: RICE BLAST, Test 1, foliar spray on rice, disease control rating at 400 ppm / 100 ppm) it was 90 to 100%; in assay [14] (Cercospora beticola, Test 1, foliar spray on sugar beet, disease control rating at 400 ppm / 100 ppm), 20 to 89%; in assay [6] (Botrytis cinerea, foliar, Test 1, spray on grape berries, disease control rating at 400 ppm / 100 ppm), 0 to 19%; in [7] (Pseudoperonospora cubensis, foliar, Test 1, foliar spray on squash, disease control rating at 400 ppm / 100 ppm, read-out: DOWN MDEW), 90 to 100%; in assay [9] (Blumeria graminis, foliar, Test 1, foliar spray on wheat, disease control rating at 400 ppm / 100 ppm, read-out: POWD MDEW) it was 90 to 100%. Moreover, the pest or weed control at 400 ppm in assay [11] (Zymoseptoria tritici, Test 1, foliar spray on wheat, disease control rating at 400 ppm / 100 ppm, read-out: LEAF BLOT) fell in the range of 90 to 100%; in assay [13] (Venturia inaequalis, Test 1, foliar spray on apple seedling, disease control rating at 400 ppm / 100 ppm, read-out: APPL SCAB), 0 to 19%. In addition, the mortality at 12 ppm in assay [2] (CRW rate 12.00 ppm) amounted to 0%. Moreover, in assay [2] (CRW rate 24.00 ppm), the mortality at 24 ppm came to 40%. In addition, the “activity against rice blast” value in assay [3] (summary statement in the description) was “particularly excellent activity”. The mortality at 200 ppm in [4] (setting [19]), in assay [5] (setting [19]) and in assay [10] (setting [19]) was 100% in each case. For the same molecule, the results for the mortality at 400 ppm in assay [4] (setting [20]), in assay [5] (setting [20]) and in assay [10] (setting [20]) were 0%, 40% and 0%, respectively.
As to `OC(c1ccc(F)cc1)(c1cncnc1)c1ccccc1Cl` (centres unmarked) [nuarimol, reference compound], the RESULTS in [17] (nuarimol alone 0.25 ppm) was determined as 1.0; in assay [17] (nuarimol alone 0.50 ppm), 1.0; in assay [17] (nuarimol alone 1.00 ppm), 1.0; in assay [17] (nuarimol alone 2.00 ppm) it was 1.0; in [18] (nuarimol alone 0.25 ppm), 6.0; in assay [18] (nuarimol alone 0.50 ppm) it was 7.0. The RESULTS in assay [18] (nuarimol alone 1.00 ppm) is 8.0; in assay [18] (nuarimol alone 2.00 ppm) it was 9.0.

Values taken from EP0326331B1, “Substituted quinolines and cinnolines” (Dow AgroSciences LLC, priority 1988, dated 1989).
